Conditions: pH 3

## CN1CCCC1c1cccnc1.O=C(O)C(O)C(O)C(=O)O (stereo not shown) [Nicotine Bitartrate, nicotine bitartrate]
  loss of nicotine into the polymeric dosage form materials, comparison of salts: better
